From patent publication US20210244743A1 (priority 2020, published 2021)

How the values were obtained:
in vitro = conditions: African green monkey
SARS-CoV-2 = SARS-CoV-2 viral transcript levels by quantitative real-time PCR in Vero E6 cells; assay type: cell-based; conditions: for EC50: Severe acute respiratory syndrome coronavirus 2, Vero C1008, Vero E6 cells, compound added 3 hours after virus (100 TCID50), assayed 48 hours later, read-out: EC50, viral transcript copy number
MERS = assay: microbe, parasite or virus in culture; assay type: cell-based, MERS-CoV; conditions: Middle East respiratory syndrome-related coronavirus, Vero, read-out: average EC50 (50% virus inhibitory concentration)
SARS = assay: microbe, parasite or virus in culture; assay type: cell-based, SARS-CoV; conditions: Severe acute respiratory syndrome coronavirus, Vero, read-out: average EC50 (50% virus inhibitory concentration)

SMILES	CC50 (in vitro) [µM]	EC50 (SARS-CoV-2) [µM]	EC50 (MERS) [µM]	EC50 (SARS) [µM]	selectivity index (CC50/EC50) (SARS-CoV-2; SARS-CoV-2, Vero E6 cells)
CCC(CC)COC(=O)[C@H](C)N[P@](=O)(OC[C@H]1O[C@@](C#N)(c2ccc3c(N)ncnn23)[C@H](O)[C@@H]1O)Oc1ccccc1 [remdesivir]	205	0.7			
Cc1cccc(/C=N/Nc2cc(N3CCOCC3)nc(OCCc3ccccn3)n2)c1 [apilimod dimesylate]	20	2.2	13.8	3.7	9.1
